Here are results for one compound from publication PMC8248052 (Chembiochem, 2021).

This experiment deals with T1, SMYD3 (Homo sapiens, UniProt Q9H7B4).
T1 sequence (Q9H7B4 1-428): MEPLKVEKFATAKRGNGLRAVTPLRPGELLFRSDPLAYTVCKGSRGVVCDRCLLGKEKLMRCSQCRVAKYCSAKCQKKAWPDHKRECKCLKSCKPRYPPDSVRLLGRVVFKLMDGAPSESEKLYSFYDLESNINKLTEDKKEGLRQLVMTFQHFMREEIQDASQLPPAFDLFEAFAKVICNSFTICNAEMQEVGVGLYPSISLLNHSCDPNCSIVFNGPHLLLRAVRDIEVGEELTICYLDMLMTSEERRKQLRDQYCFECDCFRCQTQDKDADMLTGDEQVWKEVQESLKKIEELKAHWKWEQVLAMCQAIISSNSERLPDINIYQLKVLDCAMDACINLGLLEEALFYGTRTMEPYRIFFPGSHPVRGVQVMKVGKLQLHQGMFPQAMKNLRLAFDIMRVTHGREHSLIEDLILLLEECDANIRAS
The experiment is described as follows: LC-MS methyltransferase assay, MAP3K2 […]-274 peptide, inhibition at […]. The experiment is classed as biochemical. The note with it: 0.63 µM.

Structures are written as SMILES.

With `O=C1Cc2cc(C(=O)NC3C[C@H]4CC[C@@H](C3)N4S(=O)(=O)CC3CCN(CCCC(F)(F)F)CC3)c(Cl)cc2N1` (stereo partly shown) [EPZ031686], the “Inhibition [%]” value was determined as 52.8±1.7.
